Results published in PMC5362750, “Discovery of Potent, Selective, and Orally Bioavailable Small-Molecule Modulators of the Mediator Complex-Associated Kinases CDK8 and CDK19” (Journal of Medicinal Chemistry, 2016).
In brackets after ≈: the same amount, converted by molar mass. Where two headings read alike, the source gives them in different places.

What was measured:
[1] = Thermodynamic solubility determination; format: physicochemical; conditions: phosphate buffer, pH 7.4, 37 °C, read-out: Solubility Therm.
In vivo mouse PK = conditions: for Vd / clearance / bioavailability: female, NMRI, plasma; for Vd / clearance: iv; for clearance: Cl; for bioavailability: po, 0.5 mg/kg
[2] = Caco-2 Papp determination; conditions: human, Caco-2, pH 7.4

SMILES | solubility at 24 h ([1]; pH 7.4, TFA salt) | Vd (In vivo mouse PK; 0.2 mg/kg) | clearance (In vivo mouse PK; 0.2 mg/kg, 0.2 mg/kg iv) | bioavailability (In vivo mouse PK) | Papp A→B at 2 h, 1 μM [2] | efflux ratio at 2 h, 1 μM [2] | solubility at 24 h ([1]; pH 7.4, free base) | Cl (In vivo mouse PK; 0.2 mg/kg iv, 0.2 mg/kg)
O=C1NCCC12CCN(c1c(Cl)cncc1-c1ccc(-c3cnn(CCO)c3)cc1)CC2 [Compound 17] | 112 µg/mL | 1.61 L/kg | 47.2 mL/min/kg | 7% | 22.7 ×10⁻⁶ cm/s | 19.5 |  | 
CC(C)(O)Cn1cc(-c2ccc(-c3cncc(Cl)c3N3CCC4(CCNC4=O)CC3)cc2)cn1 [Compound 18] |  | 0.8 L/kg | 16.5 mL/min/kg |  | 32 ×10⁻⁶ cm/s | 26.1 | 33 µg/mL (≈ 68.7 µM) | 
CN(C)CCn1cc(-c2ccc(-c3cncc(Cl)c3N3CCC4(CCNC4=O)CC3)cc2)cn1 [Compound 19] |  |  |  |  | 25.4 ×10⁻⁶ cm/s | 12.4 |  | 
O=C1NCCC12CCN(c1c(Cl)cncc1-c1ccc(-c3cnn(CCN4CCCC4)c3)cc1)CC2 [Compound 20] |  |  |  |  | 30.4 ×10⁻⁶ cm/s | 5.3 |  | 
Cc1nc(-c2ccc(-c3cncc(Cl)c3N3CCC4(CCNC4=O)CC3)cc2)cn1C [Compound 21] | 33 µg/mL | 6.41 L/kg | 278 mL/min/kg | 12% | 18.8 ×10⁻⁶ cm/s |  |  | 
CN1c2ccc(-c3cncc(Cl)c3N3CCC4(CCNC4=O)CC3)cc2CS1(=O)=O [Compound 23, 8-(3-Chloro-5-(1-methyl-2,2-dioxido-1,3-dihydrobenzo[c]isothiazol-5-yl)pyridin-4-yl)-2,8-diazaspiro[4.5]decan-1-one] |  |  |  |  | 29 ×10⁻⁶ cm/s | 3.3 |  | 
CN1c2cc(-c3cncc(Cl)c3N3CCC4(CCNC4=O)CC3)ccc2CS1(=O)=O [Compound 24] |  |  |  |  | 33.8 ×10⁻⁶ cm/s | 11 |  | 
Nc1n[nH]c2cc(-c3cncc(Cl)c3N3CCC4(CCNC4=O)CC3)ccc12 [Compound 25, 8-(3-(3-Amino-1H-indazol-6-yl)-5-chloropyridin-4-yl)-2,8-diazaspiro[4.5]decan-1-one] | 540 µg/mL | 1.21 L/kg | 29.2 mL/min/kg | 5% | 0.03 ×10⁻⁶ cm/s |  |  | 
Cn1cc(-c2ccc(-c3cncc(Cl)c3N3CCC4(CC3)CNC(=O)O4)cc2)cn1 [Compound 41] |  |  |  |  | 30.6 ×10⁻⁶ cm/s | 2.4 |  | 
CN1c2ccc(-c3cncc(Cl)c3N3CCC4(CC3)CNC(=O)O4)cc2CS1(=O)=O [Compound 42, 8-(3-Chloro-5-(1-methyl-2,2-dioxido-1,3-dihydrobenzo[c]isothiazol-5-yl)pyridin-4-yl)-1-oxa-3,8-diazaspiro[4.5]decan-2-one] | 53 µg/mL | 1.34 L/kg | 47.7 mL/min/kg |  | 16.6 ×10⁻⁶ cm/s |  |  | 
Cn1cc(-c2ccc(-c3cncc(Cl)c3N3CCC4(CC3)NCNC4=O)cc2)cn1 [Compound 44] |  | 1.12 L/kg | 51.2 mL/min/kg | 20% | 19.1 ×10⁻⁶ cm/s |  |  | 
Cn1cc(-c2ccc(-c3cncc(Cl)c3N3CCC4(CC3)NC(=O)NC4=O)cc2)cn1 [Compound 45] | 39 µg/mL | 1.26 L/kg | 26 mL/min/kg | 11% | 15.9 ×10⁻⁶ cm/s |  |  | 
CN1c2ccc(-c3cncc(Cl)c3N3CCC4(CC3)NC(=O)NC4=O)cc2CS1(=O)=O [Compound 46] |  |  |  |  | 3.3 ×10⁻⁶ cm/s | 126 |  | 
CC1=NC2(CCN(c3c(Cl)cncc3-c3ccc4c(c3)CS(=O)(=O)N4C)CC2)C(=O)N1 [Compound 47] | 613 µg/mL | 1.96 L/kg | 69.2 mL/min/kg | 9% | 19.8 ×10⁻⁶ cm/s |  |  | 
Cn1cc(-c2ccc(-c3cncc(Cl)c3N3CCC4(CC3)NC(=O)CNC4=O)cc2)cn1 [Compound 48] | 8 µg/mL | 1.84 L/kg | 71.2 mL/min/kg | 5% | 6.7 ×10⁻⁶ cm/s |  |  | 
CN(C)CCC1(C#N)CCN(c2c(Cl)cncc2-c2ccc3c(c2)CS(=O)(=O)N3C)CC1 [Compound 51] |  |  |  |  | 35.3 ×10⁻⁶ cm/s |  |  | 

SMILES | solubility at 24 h ([1]; pH 7.4, TFA salt) | Vd (In vivo mouse PK; 0.2 mg/kg) | clearance (In vivo mouse PK; 0.2 mg/kg, 0.2 mg/kg iv) | bioavailability (In vivo mouse PK) | Papp A→B at 2 h, 1 μM [2] | efflux ratio at 2 h, 1 μM [2] | solubility at 24 h ([1]; pH 7.4, free base) | Cl (In vivo mouse PK; 0.2 mg/kg iv, 0.2 mg/kg)
COCCN1CCCC12CCN(c1c(Cl)cncc1-c1ccc3c(c1)CS(=O)(=O)N3C)CC2 [Compound 54, 5-(5-Chloro-4-(1-(2-methoxyethyl)-1,8-diazaspiro[4.5]decan-8-yl)pyridin-3-yl)-1-methyl-1,3-dihydrobenzo[c]isothiazole 2,2-Dioxide] |  |  |  |  | 34.3 ×10⁻⁶ cm/s | 1.7 |  | 
CN1c2ccc(-c3cncc(F)c3N3CCC4(CCNC4=O)CC3)cc2CS1(=O)=O [Compound 61, 8-(3-Fluoro-5-(1-methyl-2,2-dioxido-1,3-dihydrobenzo[c]isothiazol-5-yl)pyridin-4-yl)-2,8-diazaspiro[4.5]decan-1-one] |  | 1.86 L/kg | 132 mL/min/kg | 5% | 32.9 ×10⁻⁶ cm/s | 3 |  | 132 mL/min/kg
CN1c2ccc(-c3cncc(F)c3N3CCC4(CC3)CNC(=O)O4)cc2CS1(=O)=O [Compound 63, 8-(3-Fluoro-5-(1-methyl-2,2-dioxido-1,3-dihydrobenzo[c]isothiazol-5-yl)pyridin-4-yl)-1-oxa-3,8-diazaspiro[4.5]decan-2-one] |  | 2.67 L/kg | 87.5 mL/min/kg | 27% | 16 ×10⁻⁶ cm/s | 6.5 |  | 
Cn1cc(-c2ccc(-c3cnc(N)c(Cl)c3N3CCC4(CCNC4=O)CC3)cc2)cn1 [Compound 85] |  | 0.74 L/kg | 11.2 mL/min/kg | 61% | 37 ×10⁻⁶ cm/s | 4.9 |  | 
CC(C)(O)Cn1cc(-c2ccc(-c3cnc(N)c(Cl)c3N3CCC4(CCNC4=O)CC3)cc2)cn1 [Compound 86, 8-(2-Amino-3-chloro-5-(4-(1-(2-hydroxy-2-methylpropyl)-1H-pyrazol-4-yl)phenyl)pyridin-4-yl)-2,8-diazaspiro[4.5]decan-1-one] |  | 1.22 L/kg | 17.8 mL/min/kg | 7% | 25.4 ×10⁻⁶ cm/s | 42.7 |  | 
CN1c2ccc(-c3cnc(N)c(Cl)c3N3CCC4(CCNC4=O)CC3)cc2CS1(=O)=O [Compound 88] |  |  |  |  | 19.3 ×10⁻⁶ cm/s | 5.8 |  | 
Cn1cc(-c2ccc(-c3cnc(N)c(Cl)c3N3CCC4(CC3)NC(=O)NC4=O)cc2)cn1 [Compound 91] | < 1 µg/mL |  |  |  | 9.6 ×10⁻⁶ cm/s |  |  | 
CN1c2ccc(-c3cnc(N)c(F)c3N3CCC4(CCNC4=O)CC3)cc2CS1(=O)=O [Compound 92, 8-(2-Amino-3-fluoro-5-(1-methyl-2,2-dioxido-1,3-dihydrobenzo[c]isothiazol-5-yl)pyridin-4-yl)-2,8-diazaspiro[4.5]decan-1-one] |  | 0.86 L/kg | 21.3 mL/min/kg | 37% | 23.9 ×10⁻⁶ cm/s | 29.5 |  | 
CN1c2ccc(-c3cnc(N)c(F)c3N3CCC4(CC3)CNC(=O)O4)cc2CS1(=O)=O [Compound 93] |  |  |  |  | 4 ×10⁻⁶ cm/s | 81 |  | 
Cn1cc(-c2ccc(-c3cnc(N)c(C(F)(F)F)c3N3CCC4(CCNC4=O)CC3)cc2)cn1 [Compound 94] |  |  |  |  | 20.7 ×10⁻⁶ cm/s |  |  | 
CNc1n[nH]c2cc(-c3cncc(Cl)c3N3CCC4(CCNC4=O)CC3)ccc12 [Compound 100, 8-(3-Chloro-5-(3-(methylamino)-1H-indazol-6-yl)pyridin-4-yl)-2,8-diazaspiro[4.5]decan-1-one] |  |  |  |  | 28.8 ×10⁻⁶ cm/s |  |  | 
Cn1nc(N)c2ccc(-c3cncc(Cl)c3N3CCC4(CCNC4=O)CC3)cc21 [Compound 101, 8-(3-(3-Amino-1-methyl-1H-indazol-6-yl)-5-chloropyridin-4-yl)-2,8-diazaspiro[4.5]decan-1-one 2,2,2-Trifluoroacetate] |  |  |  |  | 39 ×10⁻⁶ cm/s |  |  | 
CN(C)c1nn(C)c2cc(-c3cncc(Cl)c3N3CCC4(CCNC4=O)CC3)ccc12 [Compound 102, 8-(3-Chloro-5-(3-(dimethylamino)-1-methyl-1H-indazol-6-yl)pyridin-4-yl)-2,8-diazaspiro[4.5]decan-1-one] |  |  |  |  | 45.9 ×10⁻⁶ cm/s |  |  | 
CN1CNC(=O)C12CCN(c1c(Cl)cncc1-c1ccc(-c3cnn(C)c3)cc1)CC2 [Compound 104] |  |  |  |  | 30.6 ×10⁻⁶ cm/s |  |  | 
CC(C)n1cc(-c2ccc(-c3cnc(N)c(Cl)c3N3CCC4(CCNC4=O)CC3)cc2)cn1 [Compound 108] |  |  |  |  | 37.4 ×10⁻⁶ cm/s |  |  | 
Cn1ncc2cc(-c3cnc(N)c(Cl)c3N3CCC4(CC3)CNC(=O)O4)ccc21 [Compound 110] |  |  |  |  | 33.4 ×10⁻⁶ cm/s |  |  | 
